Results taken from PubChem BioAssay (NCI).
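Grown in 96-well plates, cells were treated for 48 hours with each compound at five concentrations. Insufficient inhibition: endpoint recorded as highest concentration tested. TGI marks complete inhibition of growth.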

Experiments:
Experiment in all cases: NCI-60 cell line screen, 48 h
SNB-19 CNS = tested on: SNB-19 CNS
NCI-H23 lung = tested on: NCI-H23 lung
EKVX NSCLC = tested on: EKVX NSCLC
KM12 colon = tested on: KM12 colon
DU-145 prostate = tested on: DU-145 prostate
NCI-H460 lung = tested on: NCI-H460 lung
CAKI-1 renal = tested on: CAKI-1 renal
MCF7 breast = tested on: MCF7 breast
SF-295 CNS = tested on: SF-295 CNS
TK-10 renal = tested on: TK-10 renal
SK-MEL-2 melanoma = tested on: SK-MEL-2 melanoma
HT29 colon = tested on: HT29 colon
LOX IMVI melanoma = tested on: LOX IMVI melanoma
SK-MEL-28 melanoma = tested on: SK-MEL-28 melanoma
SN12C renal = tested on: SN12C renal
A498 renal = tested on: A498 renal
HS 578T breast = tested on: HS 578T breast
RXF 393 renal = tested on: RXF 393 renal
T-47D breast = tested on: T-47D breast
HOP-92 NSCLC = tested on: HOP-92 NSCLC
OVCAR-8 ovarian = tested on: OVCAR-8 ovarian
NCI/ADR-RES ovarian = tested on: NCI/ADR-RES ovarian
NCI-H226 lung = tested on: NCI-H226 lung
SK-MEL-5 melanoma = tested on: SK-MEL-5 melanoma
A549 NSCLC = tested on: A549 NSCLC
HOP-62 NSCLC = tested on: HOP-62 NSCLC
HCC-2998 colon = tested on: HCC-2998 colon
IGROV1 ovarian = tested on: IGROV1 ovarian
RPMI-8226 leukemia = tested on: RPMI-8226 leukemia
NCI-H522 lung = tested on: NCI-H522 lung
786-0 renal = tested on: 786-0 renal
MALME-3M melanoma = tested on: MALME-3M melanoma
OVCAR-5 ovarian = tested on: OVCAR-5 ovarian
SW-620 colon = tested on: SW-620 colon
COLO 205 colon = tested on: COLO 205 colon
HCT-15 colon = tested on: HCT-15 colon
SF-268 CNS = tested on: SF-268 CNS
MDA-MB-231 breast = tested on: MDA-MB-231 breast
U251 CNS = tested on: U251 CNS
K-562 leukemia = tested on: K-562 leukemia
OVCAR-4 ovarian = tested on: OVCAR-4 ovarian
SF-539 CNS = tested on: SF-539 CNS
HCT-116 colon = tested on: HCT-116 colon
PC-3 prostate = tested on: PC-3 prostate
SK-OV-3 ovarian = tested on: SK-OV-3 ovarian
M14 melanoma = tested on: M14 melanoma
ACHN renal = tested on: ACHN renal
SR leukemia = tested on: SR leukemia
UO-31 renal = tested on: UO-31 renal
UACC-62 melanoma = tested on: UACC-62 melanoma
MDA-MB-435 = tested on: MDA-MB-435
MDA-N = tested on: MDA-N
OVCAR-3 ovarian = tested on: OVCAR-3 ovarian
SNB-75 CNS = tested on: SNB-75 CNS
HL-60(TB) leukemia = tested on: HL-60(TB) leukemia
CCRF-CEM leukemia = tested on: CCRF-CEM leukemia
MOLT-4 leukemia = tested on: MOLT-4 leukemia
UACC-257 melanoma = tested on: UACC-257 melanoma
BT-549 breast = tested on: BT-549 breast

## Cc1ccc(NC2=NCCO2)c2c1CCC2
SNB-19 CNS
  TGI: > 100 µM
NCI-H23 lung
  TGI: > 100 µM
EKVX NSCLC
  TGI: > 100 µM
KM12 colon
  TGI: 63.9 µM
DU-145 prostate
  TGI: > 100 µM
NCI-H460 lung
  TGI: > 100 µM
CAKI-1 renal
  TGI: > 100 µM
MCF7 breast
  TGI: > 100 µM
SF-295 CNS
  TGI: > 100 µM
TK-10 renal
  TGI: > 100 µM
SK-MEL-2 melanoma
  TGI: 48.9 µM
HT29 colon
  TGI: > 100 µM
LOX IMVI melanoma
  TGI: 76 µM
SK-MEL-28 melanoma
  TGI: > 100 µM
SN12C renal
  TGI: > 100 µM
A498 renal
  TGI: > 100 µM
HS 578T breast
  TGI: > 100 µM
RXF 393 renal
  TGI: > 100 µM
T-47D breast
  TGI: > 100 µM
HOP-92 NSCLC
  TGI: 70 µM
OVCAR-8 ovarian
  TGI: > 100 µM
NCI/ADR-RES ovarian
  TGI: 50 µM
NCI-H226 lung
  TGI: > 100 µM
SK-MEL-5 melanoma
  TGI: 32.9 µM
A549 NSCLC
  TGI: > 100 µM
HOP-62 NSCLC
  TGI: > 100 µM
HCC-2998 colon
  TGI: 74.6 µM
IGROV1 ovarian
  TGI: > 100 µM
RPMI-8226 leukemia
  TGI: > 100 µM
NCI-H522 lung
  TGI: > 100 µM
786-0 renal
  TGI: > 100 µM
MALME-3M melanoma
  TGI: 92.4 µM
OVCAR-5 ovarian
  TGI: > 100 µM
SW-620 colon
  TGI: > 100 µM
COLO 205 colon
  TGI: 83.6 µM
HCT-15 colon
  TGI: > 100 µM
SF-268 CNS
  TGI: > 100 µM
MDA-MB-231 breast
  TGI: 69.4 µM
U251 CNS
  TGI: > 100 µM
K-562 leukemia
  TGI: > 100 µM
OVCAR-4 ovarian
  TGI: > 100 µM
SF-539 CNS
  TGI: 56 µM
HCT-116 colon
  TGI: 80 µM
PC-3 prostate
  TGI: > 100 µM
SK-OV-3 ovarian
  TGI: > 100 µM
M14 melanoma
  TGI: 57 µM
ACHN renal
  TGI: > 100 µM
SR leukemia
  TGI: 53.3 µM
UO-31 renal
  TGI: > 100 µM
UACC-62 melanoma
  TGI: > 100 µM
MDA-MB-435
  TGI: 46.2 µM
MDA-N
  TGI: 38.5 µM
OVCAR-3 ovarian
  TGI: 67.9 µM
SNB-75 CNS
  TGI: 84.5 µM
HL-60(TB) leukemia
  TGI: 39.9 µM
CCRF-CEM leukemia
  TGI: > 100 µM
MOLT-4 leukemia
  TGI: > 100 µM

## CC12CCCCC1=[N+]([O-])C(C)(C)N2O (stereo not given)
SNB-19 CNS
  TGI: > 100 µM
NCI-H23 lung
  TGI: > 100 µM
EKVX NSCLC
  TGI: > 100 µM
KM12 colon
  TGI: > 100 µM
DU-145 prostate
  TGI: > 100 µM
NCI-H460 lung
  TGI: > 100 µM
CAKI-1 renal
  TGI: > 100 µM
MCF7 breast
  TGI: > 100 µM
SF-295 CNS
  TGI: > 100 µM
TK-10 renal
  TGI: > 100 µM
SK-MEL-2 melanoma
  TGI: > 100 µM
HT29 colon
  TGI: > 100 µM
LOX IMVI melanoma
  TGI: > 100 µM
SK-MEL-28 melanoma
  TGI: > 100 µM
SN12C renal
  TGI: > 100 µM
HS 578T breast
  TGI: > 100 µM
RXF 393 renal
  TGI: > 100 µM
T-47D breast
  TGI: > 100 µM
HOP-92 NSCLC
  TGI: > 100 µM
OVCAR-8 ovarian
  TGI: > 100 µM
UACC-257 melanoma
  TGI: > 100 µM
NCI/ADR-RES ovarian
  TGI: > 100 µM
NCI-H226 lung
  TGI: > 100 µM
SK-MEL-5 melanoma
  TGI: > 100 µM
A549 NSCLC
  TGI: > 100 µM
HOP-62 NSCLC
  TGI: > 100 µM
HCC-2998 colon
  TGI: > 100 µM
IGROV1 ovarian
  TGI: > 100 µM
RPMI-8226 leukemia
  TGI: > 100 µM
786-0 renal
  TGI: > 100 µM
MALME-3M melanoma
  TGI: > 100 µM
OVCAR-5 ovarian
  TGI: > 100 µM
SW-620 colon
  TGI: > 100 µM
COLO 205 colon
  TGI: > 100 µM
HCT-15 colon
  TGI: > 100 µM
SF-268 CNS
  TGI: > 100 µM
MDA-MB-231 breast
  TGI: > 100 µM
U251 CNS
  TGI: > 100 µM
OVCAR-4 ovarian
  TGI: > 100 µM
SF-539 CNS
  TGI: > 100 µM
HCT-116 colon
  TGI: > 100 µM
PC-3 prostate
  TGI: > 100 µM
SK-OV-3 ovarian
  TGI: > 100 µM
M14 melanoma
  TGI: > 100 µM
ACHN renal
  TGI: > 100 µM
SR leukemia
  TGI: > 100 µM
UO-31 renal
  TGI: > 100 µM
UACC-62 melanoma
  TGI: > 100 µM
MDA-MB-435
  TGI: > 100 µM
MDA-N
  TGI: > 100 µM
OVCAR-3 ovarian
  TGI: > 100 µM
CCRF-CEM leukemia
  TGI: > 100 µM

## CO[C@H]1O[C@@H]2CO[C@@H](c3ccccc3)O[C@H]2[C@@H]2C/C=C\CCC[C@@]12O
SNB-19 CNS
  TGI: > 100 µM
NCI-H23 lung
  TGI: 52.7 µM
EKVX NSCLC
  TGI: 45.8 µM
KM12 colon
  TGI: 54.9 µM
DU-145 prostate
  TGI: 51.8 µM
NCI-H460 lung
  TGI: 33 µM
CAKI-1 renal
  TGI: > 100 µM
MCF7 breast
  TGI: 44.9 µM
SF-295 CNS
  TGI: 42 µM
TK-10 renal
  TGI: > 100 µM
SK-MEL-2 melanoma
  TGI: 34.2 µM
HT29 colon
  TGI: 40.3 µM
LOX IMVI melanoma
  TGI: 32.4 µM
SK-MEL-28 melanoma
  TGI: 89.1 µM
SN12C renal
  TGI: 32.5 µM
A498 renal
  TGI: 29 µM
RXF 393 renal
  TGI: 33.2 µM
T-47D breast
  TGI: > 100 µM
HOP-92 NSCLC
  TGI: 43.7 µM
OVCAR-8 ovarian
  TGI: > 100 µM
UACC-257 melanoma
  TGI: 43.2 µM
NCI/ADR-RES ovarian
  TGI: 88.3 µM
NCI-H226 lung
  TGI: 40 µM
SK-MEL-5 melanoma
  TGI: 31.7 µM
A549 NSCLC
  TGI: > 100 µM
HOP-62 NSCLC
  TGI: 35.5 µM
HCC-2998 colon
  TGI: 26.4 µM
IGROV1 ovarian
  TGI: 96.2 µM
RPMI-8226 leukemia
  TGI: 44.2 µM
NCI-H522 lung
  TGI: 43.4 µM
786-0 renal
  TGI: 33 µM
OVCAR-5 ovarian
  TGI: 52.5 µM
SW-620 colon
  TGI: 81.6 µM
COLO 205 colon
  TGI: 33.6 µM
HCT-15 colon
  TGI: 76.5 µM
SF-268 CNS
  TGI: 43.3 µM
MDA-MB-231 breast
  TGI: 68.4 µM
U251 CNS
  TGI: 40.2 µM
K-562 leukemia
  TGI: 51.1 µM
BT-549 breast
  TGI: 43.8 µM
OVCAR-4 ovarian
  TGI: > 100 µM
HCT-116 colon
  TGI: 30.9 µM
PC-3 prostate
  TGI: 77.1 µM
SK-OV-3 ovarian
  TGI: 99.7 µM
M14 melanoma
  TGI: 45.9 µM
ACHN renal
  TGI: 38.1 µM
SR leukemia
  TGI: 49.4 µM
UO-31 renal
  TGI: > 100 µM
UACC-62 melanoma
  TGI: 30.7 µM
MDA-MB-435
  TGI: 52.9 µM
MDA-N
  TGI: 60.8 µM
OVCAR-3 ovarian
  TGI: 30.5 µM
SNB-75 CNS
  TGI: > 100 µM
HL-60(TB) leukemia
  TGI: 51.2 µM
CCRF-CEM leukemia
  TGI: > 100 µM
MOLT-4 leukemia
  TGI: 42.2 µM
